Assay results taken from article PMC7401278, “Sortase A-Inhibitory Metabolites from a Marine-Derived Fungus Aspergillus sp” (Marine Drugs, 2020).
In brackets after ≈: the same amount, converted by molar mass. Read-outs that look alike come from different tables or passages of the source.

Experiments:
[1] = Cytotoxicity assay (SRB), A549; assay type: cell-based; details: human, A549 (lung cancer) cells, A549, 72 h
Description: (§1) Because SrtA inhibitors are expected to serve as anti-infective agents and inhibit bacterial pathogenesis without affecting cell viability, the minimum inhibitory concentrations (MICs) of these compounds were also measured to exclude the possible effects of test compounds on S. aureus cell adhesion to the eukaryotic cell matrix protein fibronectin owing to the inhibition of cell growth.
(§2) The effect of compounds (1–8) on cell proliferation was measured by the sulforhodamine B (SRB) cellular protein-staining method. In brief, A549 (lung cancer) and K562 (leukemia) cells (1 × 10^4 cells in 190 μL of complete DMEM) were seeded in 96-well plates with various concentrations of compounds (1–8) and incubated at 37 °C in a humidified atmosphere with 5% CO2. After 72 h of compound (1–8) treatment, the cells were fixed with 10% TCA solution for 1 h, and cellular proteins were stained with a solution of 0.4% SRB in 1% acetic acid. The stained cells were dissolved in 10 mM Tris buffer (pH 10.0). The effect of compounds (1–8) on cell viability was calculated as a percentage relative to a solvent-treated control, and the IC50 values were calculated using a nonlinear regression analysis (percent survival versus concentration). Etoposide was used as a positive control.

[2] = Cytotoxicity assay (SRB), K562; assay type: cell-based; details: human, K562 (leukemia) cells, K562, 72 h
Description: as §1, §2

[3] = biological target: T1, recombinant SrtA derived from S. aureus ATCC6538p (Staphylococcus aureus, UniProt Q2FV99); assay: SrtA inhibition assay (fluorescence, cleavage of dabcyl-LPETG-edans); assay type: biochemical; details: 37 °C, 1 h
T1 construct: made in house; host or cells: Escherichia coli
Description: Recombinant SrtA derived from S. aureus ATCC6538p was purified from Escherichia coli extracts using metal chelate-affinity chromatography. The enzyme activity was determined from the fluorescence intensity upon cleavage of a peptide substrate containing the LPETG motif. Throughout the separation process, the crude extract and chromatographic fractions containing fungal metabolites of strain F452 inhibited the activity of SrtA. Accordingly, the same bioassay was performed using pure compounds.
The srtA gene from S. aureus ATCC6538p was expressed and recombinant SrtA was purified as previously described. The SrtA inhibition test was carried out by analyzing the increased fluorescence intensity resulting from the cleavage of synthetic peptide substrate dabcyl-LPETG-edans (AnaSpec, Inc., Fremont, CA, USA) with slight modification. The reaction was carried out with 100 μL buffer (50 mM Tris-HCl, 5 mM CaCl2, and 150 mM NaCl, pH 7.5), 7.5 µM synthetic peptide, 7.5 µM purified SrtA, and test samples at various concentrations. […] The SrtA inhibition assay was conducted at 37 °C for 1 h, and inhibition was quantified fluorometrically using a microplate reader (FLx800, BioTek Instruments, Winooski, VT, USA) at excitation and emission wavelengths of 350 and 495 nm, respectively. pHMB and berberine chloride were used as reference inhibitors of SrtA.

S. aureus ATCC6538p = assay: Antibacterial activity assay (MIC); assay type: cell-based; details: Staphylococcus aureus, overnight at 37 °C
Description: as §1
The MICs of test compounds were determined as previously described. S. aureus ATCC6538p (5 mL) was cultured in tryptic soy broth to saturation at 37 °C and diluted to an OD600 of 0.01. The culture was incubated for an additional 2 h and diluted to an OD600 of 0.005. In each well of a 96-well plate, 180 µL of cells was mixed with 20 µL of a concentrated test compound solution in 10% DMSO (final concentration, 1% DMSO). Culture plates were incubated overnight at 37 °C, and the OD600 was measured using a Multiskan Spectrum spectrophotometer (Thermo Labsystems Inc., Beverly, MA, USA). MIC values were defined as the lowest concentration of the test compounds inhibiting cell growth. Ampicillin was used as a positive control.

SrtA = biological target: T2, SrtA (Staphylococcus aureus, UniProt Q2FV99); assay: SrtA enzyme kinetics (Lineweaver-Burk, Dixon plot, dialysis); assay type: biochemical; details: for type of inhibition: Lineweaver and Burk plot, at IC50 or twofold IC50; for binding to SrtA (reversibility): enzyme activity recovered by dialysis within 2 h
T2 construct: made in house; host or cells: Escherichia coli
Description: To determine the type of inhibition, kinetic studies were performed with compounds 1 and 3 at IC50 or twofold IC50 based on a Lineweaver and Burk plot (Figure 2). Inhibitor constants were obtained by a Dixon plot. […] Moreover, the binding of compounds 1 and 3 to SrtA was reversible because the enzyme activity was indeed recovered by dialysis within 2 h, excluding the possible existence of a covalent bond between inhibitor and enzyme.
All sortase (SrtA) assays were performed at 37 °C in SrtA enzyme buffer as described above. The inhibitors 1 and 3 were dissolved in DMSO and immediately diluted to the desired working concentration with the same SrtA buffer. The enzymatic inhibition measurements were carried out at different substrate concentrations in the presence and absence of a given concentration of inhibitor, and their kinetics were evaluated by the Lineweaver and Burk plot method. For the dialysis kinetic studies, a solution of enzyme (0.96 mL, 75 μM) and fixed inhibitor concentration (0.04 mL) was prepared and dialyzed against 100 mL buffer at 37 °C for 2 h using regenerated cellulose dialysis membranes SPECTRAPOR® (Rancho Dominguez, CA, USA). Aliquots of 100 μL of the enzyme-inhibitor mixture were taken in time intervals of 0, 30, 60, 90, and 120 min and added to 0.020 mL of substrate (7.5 μM), and after an hour of incubation the enzyme activity was measured. A control solution prepared with enzyme and buffer (SrtA buffer, 100 μL; SrtA, 7.5 μM) was treated similarly.

Colletotrichum acutatum = system: Colletotrichum acutatum; design: method as in PMID 26998701; details: cited from earlier work
Bacillus subtilis = system: Bacillus subtilis; design: method as in PMID 26363876; details: cited from earlier work
[4] = system: S. aureus strain Newman (wild-type) adhesion to fibronectin; assay: Fibronectin-binding assay; assay type: cell-based, Staphylococcus aureus
Description: An active SrtA enzyme is required for the attachment of S. aureus to eukaryotic cell matrix proteins, such as fibronectin and fibrinogen, thus accelerating bacterial adhesion to host tissues and subsequent invasion. The srtA^− mutant strain cannot bind these proteins. Thus, SrtA inhibitors should inhibit SrtA activity in vivo and in turn reduce fibronectin-binding protein surface display. Initially, the SrtA-mediated fibronectin-binding capacities of S. aureus strain Newman (wild-type) and its isogenic srtA knockout mutant (srtA^−) to fibronectin were evaluated. […] Based on SrtA inhibition intensity, compound 1 was selected. The results of the inhibition of S. aureus adhesion to fibronectin via fibronectin-binding protein by compound 1 are shown in Figure 3b.
S. aureus strains used were Newman (wild-type) and the isogenic srtA knockout mutant (srtA^−). These strains were cultured in tryptic soy broth at 37 °C at 200 rpm up to mid-log phase (OD600 = 0.5). The fibronectin-binding assay was performed as described previously. Cells were treated with test compounds at their indicated concentrations. Every 30 min for 2.5 h, a 0.65 mL cell suspension was centrifuged at 10,000× g for 10 min, and the supernatant was eliminated. […] Plates were dried overnight and absorbance was measured at 560 nm using a microplate reader.

PC-12 cells = system: PC-12 cells; design: method as in PMID 14698172; details: cited from earlier work
[5] = system: human prostate cancer cell line PC3; design: method as in PMID 26363876; details: cited from earlier work
[6] = SrtA IC50, recombinant SrtA, value in parentheses

T1 sequence (Q2FV99 whole entry): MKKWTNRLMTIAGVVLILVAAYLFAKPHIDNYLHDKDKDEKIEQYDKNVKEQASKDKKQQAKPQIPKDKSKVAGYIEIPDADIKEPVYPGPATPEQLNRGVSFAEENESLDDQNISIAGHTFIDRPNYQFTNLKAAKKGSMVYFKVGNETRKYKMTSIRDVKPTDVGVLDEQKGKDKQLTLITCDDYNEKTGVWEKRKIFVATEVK
T2 sequence (Q2FV99 whole entry): as above

| SMILES | IC50 at 72 h [1] [µM] | IC50 at 72 h [2] [µM] | IC50 ([3]; SrtA IC50, recombinant SrtA) [µM] | IC50 [3, 6] [µM] | MIC (S. aureus ATCC6538p) [µM] | MIC (S. aureus ATCC6538p; value in parentheses) [µg/mL] | other results |
| --- | --- | --- | --- | --- | --- | --- | --- |
| COc1cc([C@@H]2c3cc4c(cc3[C@@H](O[C@@H]3O[C@@H]5CO[C@@H](C)O[C@H]5[C@H](O)[C@H]3O)[C@H]3COC(=O)[C@H]23)OCO4)cc(OC)c1O [etoposide, reference compound] | 0.5 | 0.5 | – | – | – | – | – |
| COc1ccc2cc3[n+](cc2c1OC)CCc1cc2c(cc1-3)OCO2 [Berberine chloride, berberine chloride, reference compound] | – | – | 85.9 ± 1.2 | 94.8 | > 332 | > 128 | – |
| CCC(C)C1NC(=O)C(C(C)C)n2c1nc1c(c2=O)C=C(OC)C=CO1 (stereo not drawn) [Compound 3, versicoloid A] | 13 to 50 | 13 to 50 | 193 ± 2.5 | 193.4 ± 0.899 | > 356 | > 128 | Ki (SrtA): 83 µM; type of inhibition (SrtA): uncompetitive inhibitor; binding to SrtA (reversibility) (SrtA): reversible; minimum inhibitory concentration (MIC) (Colletotrichum acutatum): 1.6 µg/mL (≈ 4.45 µM) |
| CC12NC(=O)C(Cc3c1[nH]c1ccccc31)n1c2nc2ccccc2c1=O (stereo not drawn) [Compound 8, fumiquinazoline K] | > 100 | > 100 | – | – | > 359 | > 128 | IC50 ([3]; read-out: SrtA IC50, recombinant SrtA): 235 ± 2.6 µM; IC50 ([3]; read-out: SrtA IC50, recombinant SrtA, value in parentheses): 235.1 ± 0.9 µM |
| CCC1C(=O)N2c3ccccc3C3(O)CC(n4cnc5ccccc5c4=O)C(=O)N1C23 (stereo not drawn) [Compound 5, isochaetominine B] | 13 to 50 | 13 to 50 | 232 ± 3.7 | 232.4 ± 1.4 | > 307 | > 128 | – |
| CCC(C)C1NC(=O)C(C(C)C)n2c1nc1ccc(OC)cc1c2=O (stereo not drawn) [Compound 2, versicomide A] | 13 to 50 | 13 to 50 | 269 ± 3.9 | 269.3 ± 1.4 | > 373 | > 128 | – |
| CC(C)C1C(=O)N2c3ccccc3C3(O)CC(n4cnc5ccccc5c4=O)C(=O)N1C23 (stereo not drawn) [Compound 6, isochaetominine C] | 13 to 50 | 13 to 50 | 216 ± 2.5 | 216.3 ± 1.1 | > 297 | > 128 | inhibition against Bacillus subtilis (Bacillus subtilis): weak inhibition |
| CC1CCC2C(C=CC(C)(O)C2(C)C(=O)CCO)C1 (stereo not drawn) [Compound 1, aspermytin A] | > 100 | > 100 | 146 ± 2.3 | 146 ± 0.6 | > 480 | > 128 | onset and magnitude of inhibition of Newman strain adhesion to fibronectin ([4]; 4× the SrtA IC50 value): comparable to the behavior of the untreated srtA knockout mutant; bacterial adherence to fibronectin-coated surfaces ([4]; strain Newman, 0-, 1-, 2-, or 4-fold the SrtA IC50): significantly reduced; Ki (SrtA): 265 µM; type of inhibition (SrtA): mixed inhibitor; binding to SrtA (reversibility) (SrtA): reversible; neurotrophic effects (PC-12 cells): significant neurotrophic effects |
| O=C(O)c1cc[c]([Hg][OH])cc1 [pHMB, para-hydroxymercuribenzoic acid, reference compound] | – | – | – | – | – | – | IC50 ([3]; recombinant SrtA, read-out: SrtA IC50): 112 ± 1.7 µM; SrtA IC50 ([3]; recombinant SrtA, value in parentheses): 33.1 ± 0.5 µg/mL |
| CC1(C)S[C@@H]2[C@H](NC(=O)[C@H](N)c3ccccc3)C(=O)N2[C@H]1C(=O)O [Ampicillin, reference compound] | – | – | – | – | 0.4 | 0.1 | – |
| CC(C)C1C(=O)N2c3ccccc3C3(O)CC(n4cnc5ccccc5c4=O)C(=O)N1C23 (stereo not drawn) [Compound 7, 14-epi-isochaetominine C] | – | – | 237 ± 3.8 | 237.2 ± 1.2 | – | – | cytotoxic activity [5]: weak cytotoxic activity |
| CC1C(=O)N2c3ccccc3C3(O)CC(n4cnc5ccccc5c4=O)C(=O)N1C23 (stereo not drawn) [Compound 4, isochaetominine A] | 13 to 50 | 13 to 50 | 268 ± 4.1 | 267.9 ± 1.5 | > 318 | > 128 | – |
